# Measured values as given in article PMC11864180, “Dimeric assembly of F1-like ATPase for the gliding motility of Mycoplasma” (Science Advances, 2025).
# Molecular target: T1, G1-ATPase (dimeric F1-like ATPase, twin motor; type 2 ATPase) ([Mycoplasma] mobile, UniProt Q6KIC3+Q6KIC4)
# T1 construct: gene atpA; native twin motor isolated from M. mobile cells; two alpha3beta3gamma units with GliD, GliE and PGK; PGK CTD only partly modelled; strain mutation lies in gli521, outside the complex; with F1-like ATPase gamma subunit (G1-gamma); GliD (bridge subunit of G1-ATPase); GliE (G1-ATPase subunit, 112 amino acids); Phosphoglycerate kinase
# Test: cryo-EM structure of the complex ([…] Å; local […] Å)
# Format: binding
# Conditions: Mg2+, endogenous nucleotide, isolated without added nucleotide, PBS pH 7.3, 1 mM MgCl2
SMILES,"cryo-EM structure of the complex (3.2 Å; local 3.1 Å) (catalytic site of alphaHO-betaHO, together with Pi)",cryo-EM structure of the complex (3.2 Å; local 3.1 Å) (catalytic site of alphaC-betaC and the three noncatalytic beta-alpha interfaces)
Nc1ncnc2c1ncn2[C@@H]1O[C@H](COP(=O)(O)OP(=O)(O)O)[C@@H](O)[C@H]1O [Mg-ADP],"αCβC and αHOβHO contained Mg-ATP and Mg-ADP + Pi, respectively",–
Nc1ncnc2c1ncn2[C@@H]1O[C@H](COP(=O)(O)OP(=O)(O)OP(=O)(O)O)[C@@H](O)[C@H]1O [Mg-ATP],–,"Mg-ATP was observed at the remaining three interfaces, hereafter referred to as the β-α interfaces"
